Source: ChEMBL document CHEMBL1201862, “PubChem BioAssay data set” (2004)
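Method: 48-hour compound exposure of cells in 96-well plates, five concentrations, linear interpolation of endpoints. Here, GI50 denotes the concentration required for 50% inhibition of growth.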 Active and inactive are the calls of the source. Cut-off read from the data, not from the text of the source: active = GI50 up to about 1.1 µM and inactive = higher.

Experiments:
Experiment in all cases: inhibition of tumour cell growth, NCI panel, 48 h
[1] = tested on: UO-31
[2] = tested on: MOLT-4
[3] = tested on: SK-MEL-5
[4] = tested on: SK-MEL-28
[5] = tested on: MDA-MB-231
[6] = tested on: OVCAR-3
[7] = tested on: SR
[8] = tested on: K562
[9] = tested on: UACC-257
[10] = tested on: HCT-116
[11] = tested on: MDA-MB-435
[12] = tested on: Malme-3M
[13] = tested on: M14
[14] = tested on: SW-620
[15] = tested on: HT-29
[16] = tested on: HOP-92
[17] = tested on: COLO 205
[18] = tested on: SF-268
[19] = tested on: T47D
[20] = tested on: RPMI-8226

Measured: GI50

NC(=S)N/N=C1\C(=O)Nc2c(Cl)cc(Cl)cc21
inactive: [1] 28.1 µM | [2] 14 µM | [3] 14.4 µM | [4] 15 µM | [5] 22.9 µM | [6] 11.7 µM | [7] 16.3 µM | [8] 29.6 µM | [9] 24.2 µM | [10] 17.9 µM | [11] 16.7 µM | [12] 16.2 µM | [13] 17.2 µM | [14] 30.5 µM | [15] 18.8 µM | [16] 72.1 µM | [17] 20.2 µM

C1#Cc2ccccc2OCCOc2ccccc2C#Cc2ccccc2OCCOc2ccccc21
inactive: [1] 46.7 µM | [2] 16.2 µM | [3] 18.2 µM | [4] 70.8 µM | [5] 17.7 µM | [6] 14 µM | [18] 19.7 µM | [8] 11.7 µM | [9] > 100 µM | [10] 32.7 µM | [11] > 100 µM | [12] 28.1 µM | [13] 30.8 µM | [14] 34 µM | [19] 49.5 µM | [15] 66.5 µM | [20] 16.4 µM | [17] 30.1 µM

COc1ccc(/C=N/n2c(Cc3ccccc3)n[nH]c2=O)cc1
inactive: [1] > 100 µM | [2] > 100 µM | [4] > 100 µM | [5] 22.6 µM | [6] > 100 µM | [18] 42.3 µM | [8] > 100 µM | [9] > 100 µM | [10] > 100 µM | [11] > 100 µM | [12] > 100 µM | [13] > 100 µM | [14] > 100 µM | [19] > 100 µM | [15] > 100 µM | [20] > 100 µM | [17] > 100 µM

C=CCN1CN(c2ccccc2)C2(CCN(CCCC3(c4ccc(F)cc4)OCCO3)CC2)C1=O
inactive: [1] 9.93 µM | [2] 11 µM | [3] 15.1 µM | [4] 16.9 µM | [5] 18.3 µM | [6] 14.4 µM | [7] 12.1 µM | [18] 18.7 µM | [8] 12.8 µM | [9] 18.3 µM | [10] 14.8 µM | [12] 16.5 µM | [13] 15.5 µM | [14] 18.7 µM | [19] 11.6 µM | [15] 5.61 µM | [20] 12.4 µM | [17] 15.3 µM

CCOc1ccccc1/N=N/c1c(-c2ccccc2)nn(C(=O)CC(=O)Nc2cccc(Cl)c2)c1-c1ccccc1
inactive: [1] 19.2 µM | [2] 51.6 µM | [3] 52.2 µM | [4] 31.9 µM | [6] 24.7 µM | [7] 61 µM | [18] 29.2 µM | [8] 32.2 µM | [9] 98.2 µM | [10] 35.1 µM | [12] > 100 µM | [13] > 100 µM | [14] > 100 µM | [15] 30 µM | [16] 50.7 µM | [20] 46.9 µM | [17] > 100 µM

CCN(CC)CCOc1ccc(CCc2cc(OC)c(OC)c(OC)c2)cc1
inactive: [1] 28.2 µM | [2] 21.9 µM | [3] 15.6 µM | [4] 78 µM | [6] 45.7 µM | [7] 31.3 µM | [18] > 100 µM | [8] 27.8 µM | [9] 27.9 µM | [10] 32.5 µM | [12] 43.9 µM | [13] 17.5 µM | [14] 18.4 µM | [15] 17.5 µM | [16] 20.6 µM | [20] 16.8 µM | [17] 17.3 µM

Cc1ccc(S(=O)(=O)Oc2nc3ccccc3nc2N(S(=O)(=O)c2ccc(C)cc2)S(=O)(=O)c2ccc(C)cc2)cc1
inactive: [1] 61.8 µM | [2] 47.4 µM | [3] 47.9 µM | [4] 55.6 µM | [5] 71.6 µM | [6] 41.5 µM | [18] 50.6 µM | [8] > 10 µM | [9] 61.1 µM | [10] 36.3 µM | [11] 35.8 µM | [12] 49.9 µM | [13] 76.6 µM | [14] 34.8 µM | [15] 28.2 µM | [20] 32.1 µM | [17] > 100 µM

CC[N+]1(C)CCC(O)(c2ccc(Cl)c(Cl)c2)C(C(=O)c2ccc(Cl)c(Cl)c2)C1 (centres undefined)
inactive: [1] > 10 µM | [2] > 10 µM | [3] > 10 µM | [4] > 10 µM | [6] > 10 µM | [7] > 10 µM | [18] > 10 µM | [8] > 10 µM | [9] > 10 µM | [10] > 10 µM | [12] > 10 µM | [13] > 10 µM | [14] > 10 µM | [19] > 10 µM | [15] > 10 µM | [16] > 10 µM | [20] > 10 µM | [17] > 10 µM

N/C(=N\O)N/N=C/c1ccc(O)c(O)c1
inactive: [1] > 100 µM | [2] > 100 µM | [3] > 100 µM | [4] > 100 µM | [6] > 100 µM | [7] > 100 µM | [18] > 100 µM | [8] 44.9 µM | [9] > 100 µM | [10] > 100 µM | [12] > 100 µM | [13] > 100 µM | [14] > 100 µM | [15] > 100 µM | [16] > 100 µM | [20] > 100 µM | [17] > 100 µM

CCCCCCCCCCCCCCCC/C(C(=O)OC)=C(/O)C(=O)OCC
inactive: [1] 94 µM | [2] > 100 µM | [3] > 100 µM | [4] > 100 µM | [6] > 100 µM | [7] 95.3 µM | [18] > 100 µM | [8] > 100 µM | [9] > 100 µM | [10] > 100 µM | [12] > 100 µM | [13] > 100 µM | [14] > 100 µM | [15] > 100 µM | [16] 38.9 µM | [20] > 100 µM | [17] > 100 µM

O=C(CCCNC(=O)OCc1ccccc1)OCc1ccc2c(c1)C(=O)c1ccccc1C2=O
inactive: [1] > 100 µM | [2] > 100 µM | [3] > 30.7 µM | [4] > 100 µM | [6] > 100 µM | [7] > 100 µM | [18] 53.8 µM | [8] > 100 µM | [9] > 100 µM | [10] > 100 µM | [12] > 100 µM | [13] > 100 µM | [14] > 100 µM | [15] > 100 µM | [16] 36.6 µM | [20] > 100 µM | [17] > 7.6 µM

CC(C)CCCC(C)[C@H]1CC[C@H]2[C@@H]3CC[C@H]4C[C@@H](CCC=C(c5cc(Cl)c(O)c(C(=O)OC(C)(C)C)c5)c5cc(Cl)c(O)c(C(=O)OC(C)(C)C)c5)CC[C@]4(C)[C@H]3CC[C@]12C (some centres undefined)
inactive: [2] > 50 µM | [3] > 50 µM | [4] > 50 µM | [5] > 50 µM | [6] > 50 µM | [18] > 50 µM | [8] > 50 µM | [10] > 50 µM | [11] > 50 µM | [13] > 50 µM | [14] > 50 µM | [19] > 50 µM | [15] > 50 µM | [20] > 50 µM | [17] > 50 µM

Cc1ccccc1Nc1cn(COCc2ccccc2)c(=O)[nH]c1=O
inactive: [1] 52.4 µM | [2] 55.2 µM | [3] 55 µM | [4] > 100 µM | [6] 79.8 µM | [18] 70.6 µM | [8] > 100 µM | [9] > 100 µM | [10] 49.7 µM | [11] 85.3 µM | [13] > 100 µM | [14] > 100 µM | [15] 48.5 µM | [16] > 100 µM | [20] > 100 µM | [17] 50.9 µM

O=C(CC(C(=O)c1cccs1)c1ccsc1)c1ccco1 (centres undefined)
inactive: [1] 21.2 µM | [2] > 100 µM | [3] 27.7 µM | [4] 17.1 µM | [6] 54.8 µM | [7] 41.8 µM | [18] 27.6 µM | [9] 37.9 µM | [10] 21.2 µM | [11] 20.3 µM | [13] 19.4 µM | [14] 30.1 µM | [19] 24.7 µM | [15] 4.8 µM | [16] > 100 µM | [20] 73.5 µM | [17] 8.07 µM

COc1ccc(C2C(N)=NCC2c2ccccn2)cc1 (centres undefined)
inactive: [1] > 100 µM | [2] > 100 µM | [3] > 100 µM | [4] > 100 µM | [6] > 100 µM | [7] > 100 µM | [18] > 100 µM | [8] > 100 µM | [9] > 100 µM | [10] > 100 µM | [12] > 100 µM | [13] > 100 µM | [14] > 100 µM | [15] > 100 µM | [16] > 100 µM | [20] > 100 µM | [17] > 100 µM

CCOC(=O)CCC(NC(=O)Cc1ccc(Oc2nc3ccccc3nc2-c2cccs2)cc1)C(=O)OCC (centres undefined)
inactive: [1] 22.6 µM | [2] > 100 µM | [3] > 100 µM | [4] > 100 µM | [5] 4.08 µM | [6] 4.07 µM | [7] > 100 µM | [18] 1.64 µM | [8] > 100 µM | [9] > 100 µM | [10] 6.15 µM | [11] 88.7 µM | [12] 22.7 µM | [13] > 100 µM | [14] > 100 µM | [15] > 100 µM | [16] 14 µM | [20] > 100 µM | [17] > 100 µM
